Literature values, collected in patent US20180140599A1, “PREVENTION AND/OR TREATMENT OF CONTRAST-INDUCED ACUTE KIDNEY INJURY” (Saghmos Therapeutics, Inc., priority 2016, published 2018).

Test system: patients with high serum creatinine levels undergoing coronary angiography/angioplasty
Details: four published Phase 2 trials; compared with isotonic saline

## COc1ccc(CN2CCNCC2)c(OC)c1OC [Trimetazidine]
  reducing the risk of contrast-induced nephropathy (CIN): more effective than isotonic saline in reducing the risk of contrast-induced nephropathy (CIN)
